Measured values reported in ChEMBL document CHEMBL6177967, “Semisynthesis and biological evaluation of 17-hydroxybrevianamide N derivatives as anti-inflammatory agents by mediating NF-κB and MAPK signaling pathways” (Eur J Med Chem, 2025).
pIC50: −log10 of the molar value. The source made the active and inactive calls. The calls are words filed in the database; no cut-off is given here.

How the values were obtained:
RAW264.7 [1] = experiment: Cytotoxicity against mouse RAW264.7 cells assessed as inhibition of cell growth at 10 uM incubated for 24 hrs by MTT assay; format: toxicity, cell-based; settings: raw264.7, 24 h
RAW264.7 [2] = experiment: Cytotoxicity against mouse RAW264.7 cells assessed as inhibition of cell growth at 2 uM incubated for 24 hrs by MTT assay; format: toxicity, cell-based; settings: raw264.7, 24 h
RAW264.7 [3] = experiment: Anti-inflammatory activity in LPS-induced mouse RAW264.7 cells assessed as inhibition of NO levels incubated for 24 hrs; format: functional, cell-based; settings: RAW264.7, 24 h
RAW264.7 [4] = experiment: Anti-inflammatory activity in LPS-induced mouse RAW264.7 cells assessed as inhibition of TNF-alpha level at 2 uM incubated for 24 hrs by ELISA relative to control; format: functional
RAW264.7 [5] = experiment: Anti-inflammatory activity in LPS-induced mouse RAW264.7 cells assessed as inhibition of IL-6 level at 2 uM incubated for 24 hrs by ELISA relative to control; format: functional
RAW264.7 [6] = experiment: Anti-inflammatory activity in LPS-induced mouse RAW264.7 cells assessed as inhibition of IL-1beta level at 2 uM incubated for 24 hrs by ELISA relative to control; format: functional
RAW264.7 [7] = experiment: Anti-inflammatory activity in LPS-induced mouse RAW264.7 cells assessed as inhibition of NO levels at 2 uM incubated for 24 hrs; format: functional, cell-based
RAW264.7 [8] = experiment: Cytotoxicity against mouse RAW264.7 cells assessed as inhibition of cell growth at 50 uM incubated for 24 hrs by MTT assay; format: toxicity, cell-based; settings: raw264.7, 24 h

For CN1C(=O)c2nc3ccccc3c(=O)n2C(Cc2ccccc2O)C1=O (racemic), the Activity (RAW264.7 [1]) was “Non-toxic”.
In the case of COc1ccccc1CC1C(=O)N(Cc2cccc(F)c2)C(=O)c2nc3ccccc3c(=O)n21 (racemic), the Activity (RAW264.7 [1]) was “Non-toxic”.
COc1ccccc1CC1C(=O)N(Cc2cccc(C)c2)C(=O)c2nc3ccccc3c(=O)n21 (racemic) was tested, and the Activity (RAW264.7 [1]) was “Non-toxic”.
In the case of COCC(=O)Oc1ccccc1CC1C(=O)N(C)C(=O)c2nc3ccccc3c(=O)n21 (racemic), the Activity (RAW264.7 [1]) was “Non-toxic”.
For CN1C(=O)c2nc3ccccc3c(=O)n2[C@@H](Cc2ccccc2OCC#N)C1=O, the Activity (RAW264.7 [2]) was “Non-toxic”, the pIC50 (RAW264.7 [3]) was 5.79 and the inhibition (RAW264.7 [4]) was “inactive”. The inhibition at 2 µM (RAW264.7 [5]) was 31.6% and the inhibition at 2 µM (RAW264.7 [6]) was 48.8%.
For COCOc1ccccc1CC1C(=O)N(Cc2cccc(C)c2)C(=O)c2nc3ccccc3c(=O)n21 (racemic), the Activity (RAW264.7 [1]) was “Non-toxic”.
For O=C1c2nc3ccccc3c(=O)n2C(Cc2ccccc2O)C(=O)N1Cc1cccc(Br)c1 (racemic), the Activity (RAW264.7 [1]) was “Non-toxic” and the Activity (RAW264.7 [7]) was “Active; Strong Ability Of No Inhibition Observed”.
For O=C1NC(=O)C(Cc2ccccc2O)n2c1nc1ccccc1c2=O (racemic), the Activity (RAW264.7 [1]) was “Non-toxic”, the inhibition (RAW264.7 [4]) was “inactive” and the inhibition at 2 µM (RAW264.7 [5]) was 28.8%. It also gave an inhibition at 2 µM (RAW264.7 [6]) of 33.3%.
For COc1ccccc1CC1C(=O)N(C)C(=O)c2nc3ccccc3c(=O)n21 (racemic), the Activity (RAW264.7 [1]) was “Non-toxic”.
In the case of CN1C(=O)c2nc3ccccc3c(=O)n2C(Cc2ccccc2OCc2cccc(C(F)(F)F)c2)C1=O (racemic), the Activity (RAW264.7 [1]) was “Non-toxic”.
For O=C1c2nc3ccccc3c(=O)n2[C@@H](Cc2ccccc2O)C(=O)N1Cc1cccc(F)c1, the Activity (RAW264.7 [2]) was “Non-toxic”, the pIC50 (RAW264.7 [3]) was 5.51 and the inhibition (RAW264.7 [4]) was “inactive”. It also gave an inhibition at 2 µM (RAW264.7 [5]) of 21.3% and an inhibition at 2 µM (RAW264.7 [6]) of 60.7%.
Cc1ccc(COc2ccccc2CC2C(=O)N(C)C(=O)c3nc4ccccc4c(=O)n32)cc1 (racemic) was tested, and the Activity (RAW264.7 [1]) was “Non-toxic”.
With CN1C(=O)c2nc3ccccc3c(=O)n2C(Cc2ccccc2OC(=O)c2cccs2)C1=O (racemic) the Activity (RAW264.7 [1]) was “Non-toxic”.
In the case of COCOc1ccccc1CC1C(=O)NC(=O)c2nc3ccccc3c(=O)n21 (racemic), the Activity (RAW264.7 [1]) was “Non-toxic”.
With C=CCOc1ccccc1C[C@@H]1C(=O)N(C)C(=O)c2nc3ccccc3c(=O)n21 the Activity (RAW264.7 [2]) was “Non-toxic”, the pIC50 (RAW264.7 [3]) was 5.77 and the inhibition (RAW264.7 [4]) was “inactive”. It also gave an inhibition at 2 µM (RAW264.7 [5]) of 36.5% and an inhibition at 2 µM (RAW264.7 [6]) of 42.9%.
CCOC(=O)COc1ccccc1CC1C(=O)N(C)C(=O)c2nc3ccccc3c(=O)n21 (racemic) was tested, and the Activity (RAW264.7 [1]) was “Non-toxic”.
For C=CCOc1ccccc1CC1C(=O)N(C)C(=O)c2nc3ccccc3c(=O)n21 (racemic), the Activity (RAW264.7 [8]) was “Toxic”, the Activity (RAW264.7 [1]) was “Non-toxic” and the Activity (RAW264.7 [7]) was “Active; Strong Ability Of No Inhibition Observed”.
CC(=O)Oc1ccccc1CC1C(=O)N(C)C(=O)c2nc3ccccc3c(=O)n21 (racemic) was tested, and the Activity (RAW264.7 [1]) was “Non-toxic”.
CN1C(=O)c2nc3ccccc3c(=O)n2C(Cc2ccccc2OCC#N)C1=O (racemic) was tested, and the Activity (RAW264.7 [8]) was “Non-toxic”, the Activity (RAW264.7 [1]) was “Non-toxic” and the Activity (RAW264.7 [7]) was “Active; Strong Ability Of No Inhibition Observed”.
For CN1C(=O)c2nc3ccccc3c(=O)n2C(Cc2ccccc2OC(=O)c2ccco2)C1=O (racemic), the Activity (RAW264.7 [1]) was “Non-toxic”.
CN1C(=O)c2nc3ccccc3c(=O)n2C(Cc2ccccc2OC(=O)COCc2ccccc2)C1=O (racemic) was tested, and the Activity (RAW264.7 [1]) was “Non-toxic”.
